Data on 3 compounds can be found in patent publication US20150328199A1, “METHODS AND COMPOSITIONS USING 4-AMINO-2-(2,6-DIOXO-PIPERIDINE-3-YL)-ISOINDOLINE-1,3-DIONE FOR TREATMENT OF CANCERS” (Celgene Corporation, priority 2014, published 2015).

Data set [1] is described as follows: Clinical pharmacokinetics of pomalidomide after single oral dose (non-compartmental analysis). Format: in vivo, human. Here is the method: Pomalidomide is absorbed with a maximum plasma concentration (Cmax) at a median time (tmax) between 2 hours and 3 hours after clinically relevant doses. Pomalidomide is >73% absorbed following administration of a single oral dose. […] Based on non-compartmental analysis, mean (percent coefficient of variation [%CV]) apparent volume of distribution (Vz/F) of pomalidomide after a single dose ranges from 74 L (20%) to 138 L (30%) across a dose range of 1 mg to 10 mg. Pomalidomide is extensively metabolized via multiple metabolic pathways and is eliminated in human via multiple pathways.

A short description of data set [2]: Comparative population pharmacokinetic analysis of pomalidomide with thalidomide and lenalidomide (two-compartment PPK model). Particulars: for drug exposure in central (plasma) compartment, patients versus healthy subjects: FIG. 7A, 8A; for drug exposure in peripheral compartment, patients versus healthy subjects: FIG. 7B, 8B; for relation of disease stage and peripheral compartment exposure in patients: FIG. 9. Format: in vivo, human. The source says:
Population pharmacokinetic analysis of pomalidomide was compared with that of 2-(2,6-dioxopiperidin-3-yl)-1H-isoindole-1,3(2H)-dione (“thalidomide”) and 3-(4-amino-1-oxo-1,3-dihydro-2H-isoindo1-2-yl)piperidine-2,6-dione (“lenalidomide” also known as “Revlimid”), on available data from healthy subjects and MM patients. The results of analyses are provided in Table 7 and FIGS. 3A to FIGS. 9. FIGS. 3A and 3B provide concentration vs. time profiles for thalidomide, lenalidomide and pomalidomide.
The data of thalidomide and revlimid are based on a population pharmacokinetic analysis performed on data from studies using a two-compartment PPK model.

Where only a bound is given, the exact number is not on record here.

In general, CL/F refers to clearance divided by bioavailability, as obtained after extravascular dosing.

For `Nc1cccc2c1C(=O)N(C1CCC(=O)NC1=O)C2=O` (stereo not drawn) [Pomalidomide, 4-amino-2-(2,6-dioxo-piperidine-3-yl)-isoindoline-1,3-dione], the Tmax in data set [1] (human, plasma, oral, after clinically relevant doses, read-out: median time (tmax) of maximum plasma concentration) lay in the range of 2 to 3 h. Besides, the half-life in data set [1] (human, plasma, oral, read-out: geometric mean terminal half-life (t1/2) (converted)) was roughly 7.5 h. Moreover, in data set [1] (single dose), the Cmax versus dose entry is recorded as “less than dose proportional” and the “systemic exposure (AUC) versus dose” value is on record as “approximately dose-proportional”. Also, the absorbed in data set [1] (single oral dose) is given as greater than 73%. Further, in data set [2], the “drug exposure in central (plasma) compartment, patients versus healthy subjects” value was “comparable”; the “drug exposure in peripheral compartment, patients versus healthy subjects” value was “higher drug exposure”; the “relation of disease stage and peripheral compartment exposure in patients” value is recorded as “higher disease stage were correlated with higher peripheral compartment pomalidomide exposure”. Further, in data set [2] (listed as 4-amino-2-(2,6-dioxo-piperidine-3-yl)-isoindoline-1,3-dione), the “relation of disease stage and peripheral compartment exposure in patients” value is recorded as “higher disease stage was correlated with higher peripheral compartment”. Also, in data set [2] (HNV (healthy subjects)), the CL/F worked out at 8.52 L/h, the KA was determined as 1.25 h⁻¹, the Q/CL is on record as 11.8% and the Q/F was 1.01 L/h. Also, the Tlag in data set [2] (HNV (healthy subjects)) amounted to 0.385 h. In data set [2] (Patients (MM)), the CL/F came to 7.78 L/h, the KA came to 1.25 h⁻¹, the Q/CL worked out at 48% and the Q/F worked out at 3.75 L/h. Also, the Tlag in data set [2] (Patients (MM)) is 0.206 h.

`Nc1cccc2c1CN(C1CCC(=O)NC1=O)C2=O` (stereo not drawn) [Revlimid, 3-(4-amino-1-oxo-1,3-dihydro-2H-isoindo1-2-yl)piperidine-2,6-dione]: in data set [2], the “drug exposure in central (plasma) compartment, patients versus healthy subjects” value is “comparable” and the “drug exposure in peripheral compartment, patients versus healthy subjects” value was “comparable”. Moreover, in data set [2] (HNV (healthy subjects)), the CL/F was determined as 16.8 L/h, the KA is 5.41 h⁻¹, the Q/CL amounted to 12.7% and the Q/F amounted to 2.14 L/h. Besides, in data set [2] (HNV (healthy subjects)), the “Relative Potential of Deep Penetration” value came to 2.1%, the Tlag was 0.25 h, the V2/F was 56.5 L and the V3/F was 9.49 L. Besides, the V3/V2 in data set [2] (HNV (healthy subjects)) was 16.8%. Besides, in data set [2] (Patients (MM)), the CL/F is 10.2 L/h, the Q/CL worked out at 11.1%, the Q/F stood at 1.13 L/h and the “Relative Potential of Deep Penetration” value came to 1.9%. Moreover, in data set [2] (Patients (MM)), the Tlag was found to be 0.235 h, the V2/F was 48.3 L, the V3/F worked out at 8.36 L and the V3/V2 was 17.3%.

With `O=C1CCC(N2C(=O)c3ccccc3C2=O)C(=O)N1` (stereo not drawn) [Thalidomide, 2-(2,6-dioxopiperidin-3-yl)-1H-isoindole-1,3(2H)-dione], in data set [2], the “drug exposure in central (plasma) compartment, patients versus healthy subjects” value is reported as “comparable” and the “drug exposure in peripheral compartment, patients versus healthy subjects” value was “comparable”. In data set [2] (HNV (healthy subjects)), this compound gave a CL/F of 9.66 L/h, a KA of 0.536 h⁻¹, a Q/CL of 4% and a Q/F of 0.355 L/h. In data set [2] (HNV (healthy subjects)), the “Relative Potential of Deep Penetration” value is listed as 0.6%, the V2/F is 83.3 L, the V3/F stood at 13.5 L and the V3/V2 worked out at 16%.
